# Assay results published in patent US8188064B2, “Vitamin D analogs for obesity prevention and treatment” (Wisconsin Alumni Research Foundation, priority 2003, dated 2012).
# Entries after “also recorded” stand apart in the source; their conditions may differ.
# How the values were obtained:
# [1] = target: T1, full-length recombinant rat vitamin D receptor (Rattus norvegicus, UniProt P13053); experiment: Vitamin D receptor binding (competition with 3H-1,25(OH)2D3); conditions: for binding to the vitamin D receptor, compared to 1α,25(OH)2D3: result in words, competition for tritiated hormone binding
# T1 construct: Full-length recombinant rat receptor was expressed in E. coli; histidine tag (C); made in house; host or cells: E. coli BL21(DE3) Codon Plus RIL
# T1 sequence (P13053 1-423): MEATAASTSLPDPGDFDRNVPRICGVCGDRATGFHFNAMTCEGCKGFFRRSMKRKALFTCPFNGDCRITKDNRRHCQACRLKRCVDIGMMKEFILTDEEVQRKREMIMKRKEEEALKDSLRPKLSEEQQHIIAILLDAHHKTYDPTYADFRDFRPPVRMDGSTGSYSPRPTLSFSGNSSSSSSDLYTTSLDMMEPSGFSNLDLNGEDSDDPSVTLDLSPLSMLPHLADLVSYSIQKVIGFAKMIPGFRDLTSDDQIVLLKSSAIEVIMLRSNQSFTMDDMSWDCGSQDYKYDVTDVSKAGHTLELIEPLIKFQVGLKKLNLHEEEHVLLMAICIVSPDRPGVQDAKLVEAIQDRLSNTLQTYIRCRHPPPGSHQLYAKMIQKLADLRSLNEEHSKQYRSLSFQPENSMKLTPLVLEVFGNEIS
# Procedure: Full-length recombinant rat receptor was expressed in E. coli BL21(DE3) Codon Plus RIL cells and purified to homogeneity using two different column chromatography systems. The first system was a nickel affinity resin that utilizes the C-terminal histidine tag on this protein. The protein that was eluted from this resin was further purified using ion exchange chromatography (S-Sepharose Fast Flow). Aliquots of the purified protein were quick frozen in liquid nitrogen and stored at −80° C. until use. For use in binding assays, the protein was diluted in TEDK50 (50 mM Tris, 1.5 mM EDTA, pH 7.4, 5 mM DTT, 150 mM KCl) with 0.1% Chaps detergent. The receptor protein and ligand concentration was optimized such that no more than 20% of the added radiolabeled ligand was bound to the receptor.
# Unlabeled ligands were dissolved in ethanol and the concentrations determined using UV spectrophotometry (1,25(OH)2D3: molar extinction coefficient=18,200 and λmax=265 nm; Analogs: molar extinction coefficient=42,000 and λmax=252 nm). Radiolabeled ligand (^3H-1,25(OH)2D3, ˜159 Ci/mmole) was added in ethanol at a final concentration of 1 nM.
# Radiolabeled and unlabeled ligands were added to 100 mcl of the diluted protein at a final ethanol concentration of ≦10%, mixed and incubated overnight on ice to reach binding equilibrium. The following day, 100 mcl of hydroxylapatite slurry (50%) was added to each tube and mixed at 10-minute intervals for 30 minutes. The hydroxylapaptite was collected by centrifugation and then washed three times with Tris-EDTA buffer (50 mM Tris, 1.5 mM EDTA, pH 7.4) containing 0.5% Titron X-100. After the final wash, the pellets were transferred to scintillation vials containing 4 ml of Biosafe II scintillation cocktail, mixed and placed in a scintillation counter. Total binding was determined from the tubes containing only radiolabeled ligand.
# [2] = test system: Human promyelocytic leukemia (HL60) cells; experiment: HL-60 differentiation (nitro blue tetrazolium reduction); type: cell-based; conditions: for differentiation of HL-60 cells, compared to 1α,25(OH)2D3: result in words
# Procedure: The study drugs were dissolved in ethanol and the concentrations determined using UV spectrophotometry. Serial dilutions were prepared so that a range of drug concentrations could be tested without changing the final concentration of ethanol (≦0.2%) present in the cell cultures.
# Human promyelocytic leukemia (HL60) cells were grown in RPMI-1640 medium containing 10% fetal bovine serum. The cells were incubated at 37° C. in the presence of 5% CO2.
# HL60 cells were plated at 1.2×10^5 cells/ml. Eighteen hours after plating, cells in duplicate were treated with drug. Four days later, the cells were harvested and a nitro blue tetrazolium reduction assay was performed (Collins et al., 1979; J. Exp. Med. 149:969-974). The percentage of differentiated cells was determined by counting a total of 200 cells and recording the number that contained intracellular black-blue formazan deposits. Verification of differentiation to monocytic cells was determined by measuring phagocytic activity (data not shown).
# [3] = test system: 24-hydroxylase (24Ohase) gene promoter in ROS 17/2.8 (bone) cells; experiment: In vitro transcription assay (luciferase reporter); type: cell-based; conditions: result in words
# Procedure: Transcription activity was measured in ROS 17/2.8 (bone) cells that were stably transfected with a 24-hydroxylase (24Ohase) gene promoter upstream of a luciferase reporter gene (Arbour et al., 1998). Cells were given a range of doses. Sixteen hours after dosing the cells were harvested and luciferase activities were measured using a luminometer. RLU=relative luciferase units.
# [4] = Intestinal calcium transport (everted gut sac); type: in vivo; conditions: result in words; vitamin D deficient rat model, compared to 1α,25(OH)2D3
# Procedure: (§1) Male, weanling Sprague-Dawley rats were placed on Diet 11 (0.47% Ca) diet+AEK for one week followed by Diet 11 (0.02% Ca)+AEK for 3 weeks. The rats were then switched to a diet containing 0.47% Ca for one week followed by two weeks on a diet containing 0.02% Ca. Dose administration began during the last week on 0.02% calcium diet. Four consecutive ip doses were given approximately 24 hours apart. Twenty-four hours after the last dose, blood was collected from the severed neck and the concentration of serum calcium determined as a measure of bone calcium mobilization. The first 10 cm of the intestine was also collected for intestinal calcium transport analysis using the everted gut sac method.
# [5] = Bone calcium mobilization (serum calcium on low calcium diet); type: in vivo, rat; conditions: result in words; vitamin D deficient rat model, compared to 1α,25(OH)2D3
# Procedure: as §1
# 3T3-L1 cells = experiment: Inhibition of 3T3-L1 differentiation into mature adipocytes (Oil-Red-O staining); type: cell-based, murine; conditions: for inhibition of differentiation of 3T3-L1 cells into mature adipocytes (Oil-Red-O staining): result in words, MDI-treated cells, staining at day 10
# Procedure: Various 19-nor vitamin D analogs were or are tested and found to inhibit the differentiation of preadipocytes into mature adipocytes, to reduce body fat, to inhibit an increase in PPARγ, C/EBPα, and/or SCD-1 gene transcription and to be useful in treating and preventing obesity both in vivo and in vitro. The undifferentiated preadipocyte 3T3-L1 subline, a derivative of the original mouse fibroblast cell line, is one of the most accepted models for investigating the adipogenesis process and was used for the analysis. Two days after reaching confluence, 3T3-L1 cells can be induced to differentiate into adipocytes (see Mackall, J. C. et al. J. Biol. Chem., 251(20), 6462-6464 (1976)) with the addition of a cAMP phosphodiesterase inhibitor, dexamethasone (a glucocortoid), and insulin. […] The induction of PPARγ and C/EBPα is required for adipocyte differentiation. […] SCD-1 is an enzyme found in adipocytes that converts saturated fatty acids (C16 and C18) to their monounsaturated forms (C16:1 and C18:1). The deposition of triglyceride can also be detected as early as 3 days, and by the 7th to 14th days post-confluence, greater than 80% of the cells in the monolayer stain positively with Oil-red-O.
# SCD-1 mRNA = experiment: Inhibition of SCD-1 mRNA induction in 3T3-L1 cells (RT-PCR); type: cell-based, murine; conditions: for inhibition of SCD-1 mRNA induction: result in words, MDI-treated 3T3-L1 cells
# Description: Chomczynski, P. et al., Anal. […] NO: 4)).
SMILES,"binding to the vitamin D receptor, compared to 1α,25(OH)2D3 [1]",intestinal calcium transport activity [4],"differentiation of HL-60 cells, compared to 1α,25(OH)2D3 [2]","transcriptional activity in bone cells, compared to 1α,25(OH)2D3 [3]",bone calcium mobilization activity [5],inhibition of differentiation of 3T3-L1 cells into mature adipocytes (Oil-Red-O staining) (3T3-L1 cells),inhibition of SCD-1 mRNA induction (SCD-1 mRNA),also measured
COCOCCC=C1C(O)CC(=CC=C2CCCC3(C)C2CCC3C(C)CCCC(C)(C)O)CC1O (centres unmarked) [F-Wit],very active; also recorded: less than five times less potent,relatively high intestinal calcium transport activity; also recorded: active,as potent as,significant transcriptional activity,significant ability to mobilize calcium from bone; also recorded: active,also active,active,cells induced to differentiate in the NBT assay ([2]; concentration 1×10^−7 M): same degree of differentiation
C=C1[C@H](O)CC(=C/C=C2\CCC[C@@H]3[C@@H]([C@@H](C)CCCC(C)(C)O)CC[C@@H]23)C[C@H]1O [VD-03],very active; also recorded: as well as the native hormone,about as active as; also recorded: approximately the same activity,high potency,higher transcriptional activity,relatively low ability,active,active,"fold more active than the native hormone 1α,25-(OH)2D3 in inhibition of adipocyte differentiation (3T3-L1 cells; Oil-Red-O staining): approximately 10 fold"
"C[C@H](/C=C/[C@H](C)C(C)(C)O)[C@H]1CC[C@H]2/C(=C/C=C3C[C@@H](O)C[C@H](O)C3)CCC[C@]12C [19-nor-1α,25-dihydroxyvitamin D2, reference compound]",as well as the native hormone,,,,very low bone calcium mobilizing activity,equivalent in potency; also recorded: active,,"inhibition of differentiation of 3T3-L1 cells into mature adipocytes (Oil-Red-O staining) (3T3-L1 cells; listed as 19-nor-1α,25-dihydroxyvitamin D2): more active"
"C=C1[C@H](O)C/C(=C/C=C2\CCC[C@]3(C)[C@@H]([C@@H](C)CC)CC[C@@H]23)C[C@@H]1O [(1β,20S)2MbisP, (20S)-1β-hydroxy-2-methylene-19-nor-bishomo-pregnacalciferol, reference compound]","binds poorly, if at all",,,,,,,"inhibition of differentiation of 3T3-L1 cells into mature adipocytes (Oil-Red-O staining) (3T3-L1 cells; listed as 1-(20S)2-MbisP): unable to inhibit; inhibition of differentiation of 3T3-L1 cells into mature adipocytes (Oil-Red-O staining) (3T3-L1 cells; listed as (1βOH, 20S)2M-BisP): ineffective; inhibition of SCD-1 mRNA induction (SCD-1 mRNA; listed as 1-(20S)2-MbisP): unable to inhibit; inhibition of SCD-1 mRNA induction (SCD-1 mRNA; listed as (1βOH, 20S)2M-BisP): ineffective"
"CCCC[C@H](C)[C@H]1CC[C@H]2/C(=C/C=C3C[C@@H](O)C(C)[C@H](O)C3)CCC[C@]12C (stereo partly drawn) [2α-methyl-19,26,27-trinor, 2α-methyl-19,26,27-trinor-(20S)-1α-hydroxyvitamin D3]",bound equally well,,almost as potent,similar,very little bone calcium mobilization activity,,,
C=C1[C@H](O)CC(=C/C=C2\CCC[C@]3(C)[C@@H](CC)CC[C@@H]23)C[C@H]1O [2-Mpregna],as or nearly effective as calcitriol,"little, if any, activity",,,"little, if any, activity",nearly as potent as the native hormone,nearly as potent as the native hormone,inhibition of differentiation of 3T3-L1 cells into mature adipocytes (Oil-Red-O staining) (3T3-L1 cells; listed as 2Mpregna): still active; inhibition of differentiation of MDI-treated 3T3-L1 cells (oil-red-O staining) (3T3-L1 cells; tested at 1×10^−8.5 M): active; inhibition of SCD-1 mRNA induction (SCD-1 mRNA; listed as 2Mpregna): still active; inhibition of SCD1 mRNA induction (SCD-1 mRNA; tested at 1×10^−8.5 M): active

# The next lines start with results.
"binding to the vitamin D receptor, compared to 1α,25(OH)2D3 [1]",intestinal calcium transport activity [4],SMILES,"differentiation of HL-60 cells, compared to 1α,25(OH)2D3 [2]","transcriptional activity in bone cells, compared to 1α,25(OH)2D3 [3]",bone calcium mobilization activity [5],inhibition of differentiation of 3T3-L1 cells into mature adipocytes (Oil-Red-O staining) (3T3-L1 cells),inhibition of SCD-1 mRNA induction (SCD-1 mRNA),also measured
,active,C=C1[C@H](O)CC(=C/C=C2\CCC[C@]3(C)[C@@H]([C@@H](C)CCCC(C)(C)C)CC[C@@H]23)C[C@H]1O [TMM],,,active,inhibit; also recorded: effective,,
bound equally well,very little activity,"C=C1[C@H](O)CC(=C/C=C2\CCC[C@@H]3[C@@H](C(C)C)CC[C@@H]23)C[C@H]1O [18,19-dinor-2MP, 2-methylene-18,19-dinor-1α-hydroxyhomopregnacalciferol]",almost as potent,about the same transcriptional activity,very little bone calcium mobilization activity,,,
,less active,C=C1[C@H](O)CC(=C/C=C2\CCC[C@]3(C)[C@@H]([C@H](C)/C=C/[C@@H](C)C(C)(C)O)CC[C@@H]23)C[C@H]1O [(24epi)D2],,,less active,improved; also recorded: active,,higher affinity binding to the vitamin D receptor than the native hormone ([1]; higher affinity than native hormone): approximately 0.5 log units
